Measured values reported in US20260317319A1, “NOVEL ERGOLINES AND METHODS OF TREATING MOOD DISORDERS” (Gilgamesh Pharma Inc., priority 2023, published 2026).
Read-outs that look alike come from different tables or passages of the source.

What was measured:
5-HT2B receptor = molecular target: T1, 5-HT2B receptor (Homo sapiens, UniProt P41595); assay: cell-based; assay type: cell-based; details: Ca2+ flux; for Emax: HEK293, agonist, HEK293, max dose, read-out: 5-HT2B % Act @ Max Dose; for EC50: agonist, HEK293
T1 construct: expressed in transfected cells; host or cells: HEK293, stably transfected
Description: (§1) Functional Assays at 5-HT2A, 5-HT2B, and 5-HT1A. Agonist activity at 5-HT2A, 5-HT2B, 5HT2C and 5-HT1A receptors was determined using a FLIPR Ca^2+ flux assay at WuXi AppTec (Hong Kong) Limited according to their standard protocols. Briefly, stably transfected cells expressing the receptor of interest and Gα15 in the case of 5-HT1A (HEK293 for 5-HT2A and 5-HT2B; CHO cells for 5-HT1A) were grown and plated in a 384 well plate and incubated at 37° C. and 5% CO2 overnight. A solution of 250 mM probenecid in 1 mL FLIPR assay buffer was prepared fresh. This was combined with a fluorescent dye (Fluo-4 Direct™) to make a final assay concentration of 2.5 mM. […] The fluorescent dye was then added to the assay plate along with assay buffer to a final volume of 40 μL. The cell plate was incubated for 50 min at 37° C. and 5% CO2 and placed into the FLIPR Tetra along with the compound plate. 10 μL of references and compounds were then transferred from the compound plate into the cell plate and the fluorescent signal was read.

5-HT1A receptor = molecular target: T2, 5-HT1A receptor (Homo sapiens, UniProt P08908); assay: cell-based; details: agonist, Ca2+ flux; for Emax: CHO, CHO cells with Gα15, max dose, read-out: 5-HT1A % Act @ Max Dose; for EC50: CHO cells with Gα15
T2 construct: expressed in transfected cells; host or cells: CHO cells, stably transfected
T2 sequence (P08908 1-422): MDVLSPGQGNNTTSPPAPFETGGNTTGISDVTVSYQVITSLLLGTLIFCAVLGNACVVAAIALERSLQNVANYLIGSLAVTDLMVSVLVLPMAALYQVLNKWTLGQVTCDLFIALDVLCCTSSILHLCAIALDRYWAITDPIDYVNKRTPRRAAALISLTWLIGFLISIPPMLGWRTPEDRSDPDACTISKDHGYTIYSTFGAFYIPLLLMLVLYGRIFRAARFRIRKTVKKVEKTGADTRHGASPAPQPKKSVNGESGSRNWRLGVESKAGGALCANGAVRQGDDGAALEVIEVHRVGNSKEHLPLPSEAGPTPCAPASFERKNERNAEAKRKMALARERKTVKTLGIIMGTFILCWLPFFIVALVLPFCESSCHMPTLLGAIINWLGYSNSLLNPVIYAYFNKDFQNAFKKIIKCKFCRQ
Description: as §1

5-HT1B receptor = molecular target: T3, 5-HT1B receptor (Homo sapiens, UniProt P28222); assay: cAMP accumulation functional assay at 5-HT1B; assay type: cell-based; details: agonist, cAMP accumulation, max dose; read-out: 5-HT1B % Act @ Max Dose
T3 construct: expressed in transfected cells
Description: Functional Assay at 5-HT1B. Agonist activity at 5-HT1B was determined using a CAMP accumulation protocol at WuXi AppTec (Hong Kong) Limited according to their standard protocols. Briefly, stably transfected cells were plated in an OptiPlate-384 well plate, incubated at RT for 60 mins, and cAMP standard solution (800 nM, 10 μL) was added to the blank well. Then, 10 μL detection reagent was added to each well, the plate incubated for 60 mins at RT, and the plate read using En Vision.

5-HT2A receptor [1] = molecular target: T4, 5-HT2A receptor (Homo sapiens, UniProt P28223); assay: cell-based; assay type: cell-based; set-up: expressed in transfected cells; host or cells: HEK293, stably transfected; details: for Emax: HEK293, agonist, HEK293, max dose, read-out: 5-HT2A % Act @ Max Dose; for Emax / EC50: Ca2+ flux; for EC50: agonist, HEK293
Description: as §1

in vitro [2] = assay type: in vitro ADME, human; details: human, microsomes, HLM 0.50 mg/mL, NADPH 1 mM, 1 μM compound, pH 7.4, 37° C., 60 min; for microsomal CLint: read-out: Intrinsic clearance (Clint); for half-life: read-out: half-life (t1/2)
in vitro [3] = assay type: in vitro ADME, mouse; details: mouse, microsomes, MLM (male CD-1) 0.50 mg/mL, NADPH 1 mM, 1 μM compound, pH 7.4, 37° C., 60 min; for microsomal CLint: read-out: Intrinsic clearance (Clint); for half-life: read-out: half-life (t1/2)
Text: MLM Stability Pooled MLM from male CD-1 mice (BIOIVT M00501) were used.

in vitro [4] = assay type: in vitro ADME, rat; details: rat, microsomes, RLM (male Sprague-Dawley) 0.50 mg/mL, NADPH 1 mM, 1 μM compound, pH 7.4, 37° C., 60 min; for microsomal CLint: read-out: Intrinsic clearance (Clint); for half-life: read-out: half-life (t1/2)
Text: RLM Stability Pooled RLM from male Sprague-Dawley rats (Xenotech R1000) were used.

5-HT2A receptor [5] = molecular target: T4, 5-HT2A receptor; assay: biochemical; assay type: binding; set-up: expressed in transfected cells; host or cells: HEK293, stably transfected; details: [3H]ketanserin 1 nM; HEK293 stable cell line; 1 h, 25 °C
Description: Affinity of the test compounds for the 5-HT2A receptor was determined in radioligand binding experiments with [^3H]ketanserin by WuXi AppTec (Hong Kong) Limited, using methods adapted from the literature and under conditions described in Table 1.

T3 sequence (P28222 whole entry): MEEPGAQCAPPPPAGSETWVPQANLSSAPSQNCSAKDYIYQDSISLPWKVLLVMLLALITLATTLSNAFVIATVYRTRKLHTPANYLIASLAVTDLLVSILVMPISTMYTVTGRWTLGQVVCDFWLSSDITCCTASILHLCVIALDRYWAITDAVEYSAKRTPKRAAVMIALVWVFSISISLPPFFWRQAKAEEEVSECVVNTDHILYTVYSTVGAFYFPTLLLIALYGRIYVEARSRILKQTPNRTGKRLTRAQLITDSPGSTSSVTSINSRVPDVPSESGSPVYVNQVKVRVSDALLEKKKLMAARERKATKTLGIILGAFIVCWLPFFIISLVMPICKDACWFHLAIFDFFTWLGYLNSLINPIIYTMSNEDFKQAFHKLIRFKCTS
T1 sequence (P41595 whole entry): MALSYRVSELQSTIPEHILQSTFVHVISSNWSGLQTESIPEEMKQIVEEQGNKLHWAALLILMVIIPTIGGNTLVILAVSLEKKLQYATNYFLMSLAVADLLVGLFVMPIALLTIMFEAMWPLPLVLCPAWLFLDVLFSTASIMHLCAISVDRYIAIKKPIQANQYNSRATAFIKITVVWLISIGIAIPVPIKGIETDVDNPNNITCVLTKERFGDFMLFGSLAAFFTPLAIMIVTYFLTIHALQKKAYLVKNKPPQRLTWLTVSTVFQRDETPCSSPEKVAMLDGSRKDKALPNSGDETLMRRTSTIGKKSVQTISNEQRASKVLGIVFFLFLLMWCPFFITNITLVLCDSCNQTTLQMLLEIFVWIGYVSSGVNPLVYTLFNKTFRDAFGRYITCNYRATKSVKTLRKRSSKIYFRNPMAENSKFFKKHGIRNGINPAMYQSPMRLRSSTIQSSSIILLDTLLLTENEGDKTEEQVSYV
T4 sequence (P28223 whole entry): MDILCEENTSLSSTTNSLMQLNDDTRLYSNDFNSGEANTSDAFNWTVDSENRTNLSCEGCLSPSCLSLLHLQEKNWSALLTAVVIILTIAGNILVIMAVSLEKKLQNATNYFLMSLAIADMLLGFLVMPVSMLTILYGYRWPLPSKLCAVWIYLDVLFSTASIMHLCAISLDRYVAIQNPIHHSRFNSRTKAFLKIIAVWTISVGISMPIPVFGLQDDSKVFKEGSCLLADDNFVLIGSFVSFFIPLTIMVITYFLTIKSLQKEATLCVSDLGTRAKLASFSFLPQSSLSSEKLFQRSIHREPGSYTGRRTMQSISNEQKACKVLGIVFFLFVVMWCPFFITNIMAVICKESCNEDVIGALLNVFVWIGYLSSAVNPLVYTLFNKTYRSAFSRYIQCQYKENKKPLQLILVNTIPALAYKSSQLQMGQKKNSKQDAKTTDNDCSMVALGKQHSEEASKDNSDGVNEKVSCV

`CCCN1C[C@H](C(=O)N(CC)CC)C=C2c3cccc4[nH]c(Br)c(c34)C[C@H]21` [Compound 9, (6aR,9R)-5-bromo-N,N-diethyl-7-propyl-4,6,6a,7,8,9-hexahydroindolo[4,3-fg]quinoline-9-carboxamide] gave an Emax (5-HT2B receptor) of 89.6%, an Emax (5-HT1A receptor) of 101% and an Emax (5-HT1B receptor) of 81.5%. It also gave an Emax (5-HT2A receptor [1]) of 75.8%.
Compound `CCN(CC)C(=O)[C@@H]1C=C2c3cccc4[nH]cc(c34)C[C@H]2N(CCF)C1` [Compound 39, (6aR,9R)—N,N-diethyl-7-(2-fluoroethyl)-4,6,6a,7,8,9-hexahydroindolo[4,3-fg]quinoline-9-carboxamide] has an Emax (5-HT2B receptor) of 85.5%, an Emax (5-HT1A receptor) of 91.2% and an Emax (5-HT1B receptor) of 99%. The Emax (5-HT2A receptor [1]) was 95.5%.
`CCCN1C[C@H](C(=O)N[C@H](C)CC)C=C2c3cccc4[nH]c(Br)c(c34)C[C@H]21` [Compound 46, (6aR,9R)-5-bromo-N—((R)-sec-butyl)-7-propyl-4,6,6a,7,8,9-hexahydroindolo[4,3-fg]quinoline-9-carboxamide] gave an Emax (5-HT2B receptor) of 79%, an Emax (5-HT1A receptor) of 69.5% and an Emax (5-HT1B receptor) of 78.8%. The Emax (5-HT2A receptor [1]) was 69.5%.
`CC[C@@H](C)NC(=O)[C@@H]1C=C2c3cccc4[nH]cc(c34)C[C@H]2N(CCC(F)(F)F)C1` [Compound 40, (6aR,9R)—N—((R)-sec-butyl)-7-(3,3,3-trifluoropropyl)-4,6,6a,7,8,9-hexahydroindolo[4,3-fg]quinoline-9-carboxamide] gave an Emax (5-HT2B receptor) of 8.46%, an Emax (5-HT1A receptor) of 22.3% and an Emax (5-HT1B receptor) of 62.1%. The Emax (5-HT2A receptor [1]) was 45.1% and the “selectivity for 5-HT2A over the other serotonin receptors tested” value (5-HT2A receptor [1]; functional agonist activity) was “highly selective for 5-HT2A”.
With `CCCN1C[C@H](C(=O)N2[C@@H](C)C[C@@H]2C)C=C2c3cccc4[nH]c(Br)c(c34)C[C@H]21` [Compound 47, ((6aR,9R)-5-bromo-7-propyl-4,6,6a,7,8,9-hexahydroindolo[4,3-fg]quinolin-9-yl)((2S,4S)-2,4-dimethylazetidin-1-yl)methanone] the Emax (5-HT2B receptor) was 87%, the Emax (5-HT1A receptor) was 62.1% and the Emax (5-HT1B receptor) was 76.2%. The Emax (5-HT2A receptor [1]) was 57%.
In the case of `CCN(CC)C(=O)[C@H]1C=C2c3cccc4[nH]cc(c34)C[C@H]2N(CC2CCCC2)C1` [Compound 90a, (6aR,9S)-7-(cyclopentylmethyl)-N,N-diethyl-4,6,6a,7,8,9-hexahydroindolo[4,3-fg]quinoline-9-carboxamide], the Emax (5-HT2B receptor) is reported as 21.9%, the EC50 (5-HT2B receptor) is reported as over 10000 nM and the Emax (5-HT1A receptor) is reported as 135%. It also gave an EC50 (5-HT1A receptor) of over 100000 nM, a microsomal CLint (in vitro [2]) of 158 µL/min/mg and a half-life (in vitro [2]) of 8.8 min. It also gave a microsomal CLint (in vitro [3]) of 712 µL/min/mg, a half-life (in vitro [3]) of 1.9 min and a microsomal CLint (in vitro [4]) of 288 µL/min/mg. For the same compound, the half-life (in vitro [4]) was 4.8 min, the Ki (5-HT2A receptor [5]) was 55.6 nM and the Emax (5-HT2A receptor [1]) was 25.7%. For the same compound, the EC50 (5-HT2A receptor [1]) was over 1000 nM.
For `CC[C@@H](C)NC(=O)[C@@H]1C=C2c3cccc4[nH]cc(c34)C[C@H]2N(Cc2ccccc2)C1` [Compound 88, (6aR,9R)-7-benzyl-N—((R)-sec-butyl)-4,6,6a,7,8,9-hexahydroindolo[4,3-fg]quinoline-9-carboxamide], the Emax (5-HT2B receptor) was 0.88%, the EC50 (5-HT2B receptor) was over 10000 nM and the Emax (5-HT1A receptor) was 76.7%. For the same compound, the EC50 (5-HT1A receptor) was 8710 nM, the microsomal CLint (in vitro [2]) was 455 µL/min/mg and the half-life (in vitro [2]) was 3 min. The microsomal CLint (in vitro [3]) was 774 µL/min/mg, the half-life (in vitro [3]) was 1.8 min and the microsomal CLint (in vitro [4]) was 246 µL/min/mg. The half-life (in vitro [4]) was 5.6 min, the Ki (5-HT2A receptor [5]) was 3.1 nM and the Emax (5-HT2A receptor [1]) was 73.6%. For the same compound, the EC50 (5-HT2A receptor [1]) was 347 nM.
In the case of `CCN(CC)C(=O)[C@@H]1C=C2c3cccc4[nH]cc(c34)C[C@H]2N(Cc2cccc(C)c2)C1` [Compound 98, (6aR,9R)—N,N-diethyl-7-(3-methylbenzyl)-4,6,6a,7,8,9-hexahydroindolo[4,3-fg]quinoline-9-carboxamide], the Emax (5-HT2B receptor) is reported as 3.37%, the EC50 (5-HT2B receptor) is reported as over 10000 nM and the Emax (5-HT1A receptor) is reported as 31.2%. It also gave an EC50 (5-HT1A receptor) of over 100000 nM, a microsomal CLint (in vitro [2]) of 91.4 µL/min/mg and a half-life (in vitro [2]) of 15.2 min. It also gave a microsomal CLint (in vitro [3]) of 470 µL/min/mg, a half-life (in vitro [3]) of 3 min and a microsomal CLint (in vitro [4]) of 717 µL/min/mg. For the same compound, the half-life (in vitro [4]) was 1.9 min, the Ki (5-HT2A receptor [5]) was 8.26 nM and the Emax (5-HT2A receptor [1]) was 76.5%. The EC50 (5-HT2A receptor [1]) was 431 nM.
